Data on 19 compounds can be found in US5430043A, “Platelet aggregation inhibitors” (G. D. Searle & Co., priority 1993, dated 1995).

Assay [1] concerns collagen-induced platelet aggregation. Put plainly: Oral (IG) administration of compound (ester) to dogs; inhibition of collagen-induced platelet aggregation. Type of assay: in vivo. The note with it: dog. Here is the method: Oral Administration of Compound
Dogs (n=2) were weighed and two control blood samples (2×2 ml) were drawn via venipuncture from the cephalic vein. Blood was centrifuged at 266×g for 6 minutes to prepare PRP. Percent aggregation prior to compound administration (baseline) was established by adding 50 μl of collagen to 450 μl of PRP and measuring aggregation for 4 minutes. Compound (in the ester form) was administered orally (single dose) by gelatin capsule. Blood samples (2×2 ml) were drawn at selected time intervals after dosing. Inhibition of collagen-induced platelet aggregation was determined by comparing aggregation responses in the samples containing compound with the responses of samples before compound administration (baseline). The remaining blood was centrifuged for 2 minutes at 12,000 ×g to prepare PPP for determination of concentration of compound in the plasma samples by bioassay (see below).

Assay [2] relates to Platelet aggregation in PRP (dog). The experiment in a line: In-Vitro Platelet Aggregation in PRP (Dog), collagen-induced. Type of assay: cell-based. The note with it: collagen 33 μg/ml final. As for the experimental part: In-Vitro Platelet Aggregation in PRP--(Dog)
Healthy male or female dogs were fasted for 8 hours prior to drawing blood; then 60 ml whole blood was collected using a butterfly needle and 60 cc plastic syringe with 6 ml of 0,129 M buffered sodium citrate (3.8%) (drawn from a minimum of 3 dogs and blood was pooled). The syringe was rotated carefully as blood was drawn to mix the citrate. Platelet-rich plasma (PRP) was prepared by centrifugation at 975×g for 3.17 minutes at room temperature, allowing the centrifuge to coast to a stop without braking. The PRP was removed from the blood with a plastic pipette and placed in a plastic capped 50 ml Corning conical sterile centrifuge tube which was held at room temperature. Platelet poor plasma (PPP) was prepared by centrifuging the remaining blood at 2000×g for 15 minutes at room temperature allowing the centrifuge to coast to a stop without braking. The platelet count in the PRP was routinely 2-4×10^8 platelets per ml. 400 μl of the PRP preparation and 50 μl of the compound to be tested or saline were preincubated for 2 minutes at 37° C. in a BioData aggregometer (BioData, Horsham, Pa.). 50 μl of collagen (diluted 1:3 with 5% dextrose and water solution, 33 μg/ml final concentration, equine tendon, Chronolog, Havertown, Pa.) was added to the cuvettes and the aggregation was monitored for 3 minutes. All compounds are tested in duplicate. Results are calculated as follows: [formula]
The assay results for the compounds of the present invention and their median inhibitory concentrations (IC50) are recorded in Tables I-III.

Assay [3] concerns collagen-induced platelet aggregation. Put plainly: I.V. compound (acid) administration to dogs; inhibition of collagen-induced platelet aggregation. Type of assay: in vivo. Conditions: dog, 1 mg/kg. Here is the method: I.V. Compound Administration
Dogs were placed in a dog sling. Two control blood samples (2×2 ml) were collected and PRP was prepared and percent aggregation was determined to establish a baseline as stated above. Compound (in the acid form) in 4 ml of saline/water (50:50) was injected into the cephalic vein over one minute with a syringe connected to a 23 g butterfly infusion set. Blood samples (2×2 ml) were drawn at 5 minute intervals after dosing for the first 15 minutes, 15 minute intervals until 60 minutes, 30 minute intervals until 2 hours, hourly until ~6 hours, again at 24 hours or until baseline aggregation was reached. PRP was prepared for aggregation studies as previously described. PPP was prepared for determination of concentration of compound by bioassay (see below).

The mark [4] stands for this setting: Canis lupus familiaris, Platelet.

Counter-ions that a name gives are not always drawn.

For the compound `CCOC(=O)CC(C)NC(=O)Cn1ccn(-c2ccc(C(=N)N)cc2)c1=O` (stereo not shown) [Example 9, Ethyl 3-[[[[1-[4-(aminoiminomethyl)phenyl]-2(3H)-oxo-1H-imidazol-3-yl]methyl]carbonyl]amino]butanoate trifluoroacetate], in assay [1] (10 mg/kg), the “Hours duration (IG - ester)” value amounted to 4.5 h. The “% inhibition (IG - ester)” value in assay [1] (10 mg/kg, 4.5 hr) turned out to be 33%.

Broadly, the IC50 is the midpoint of a concentration-inhibition curve. Turning to `CC(CC(=O)O)NC(=O)Cn1ccn(-c2ccc(C(=N)N)cc2)c1=O` (stereo not shown) [Example 10, 3-[[[1-[4-(aminoiminomethyl)phenyl]-2(3H)-oxo-1H-imidazol-3-yl]methyl]carbonyl]amino]butanoic acid trifluoroacetate], half-maximal inhibition in assay [2] (setting [4]) (IC50) required 620 nM.

In the case of `N=C(N)c1ccc(N2CCN(CC(=O)NCCC(=O)O)C2=O)cc1` [Example 5, 3-[[[[1-[4-(aminoiminomethyl)phenyl]-4,5-dihydro-2(3H]-oxo-1H-imidazol-3-yl]methyl]carbonyl]amino]propanoic acid, trifluoroacetate], in assay [3], the “Hours duration (IV - acid)” value stood at 24 h. Besides, the “% inhibition (IV - acid)” value in assay [3] (24 hr) came out at 31%. In assay [2] (setting [4]), this compound registered an IC50 of 190 nM.

As to `CCOC(=O)C[C@H](NC(=O)CN1CCN(c2ccc(C(=N)N)cc2)C1=O)c1cccnc1` [Example 23, Ethyl β-[[[[1-[4-(aminoiminomethyl]phenyl]-4,5-dihydro-2(3H)-oxo-1H-imidazol-3-yl]methyl]carbonyl]amino]-3(S)-pyridinepropanoate], the “Hours duration (IG - ester)” value in assay [1] (5 mg/kg) stood at 24 h. In addition, in assay [1] (5 mg/kg, 24 hr), the “% inhibition (IG - ester)” value is 88%.

In the case of `C=CC(CC(=O)O)NC(=O)Cn1ccn(-c2ccc(C(=N)N)cc2)c1=O` (stereo in doubt) [Example 12, 3-[[[[1-[4-(aminoiminomethyl)phenyl]-2(3H)-oxo-1H-imidazol-3-yl]methyl]carbonyl]amino]-4(3S)-pentenoic acid trifluoroacetate], the “Hours duration (IV - acid)” value in assay [3] turned out to be 6 h. For the same compound, the “% inhibition (IV - acid)” value in assay [3] (6 hr) is 54%. Also, the midpoint of inhibition in assay [2] (setting [4]), the IC50, lay at 650 nM.

As to “β-[[[[4-(aminoiminomethyl)phenyl]-4,5-dihydro-2(3H)-oxo-1H-imidazol-3- yl]methyl]carbonyl]amino]-3-pyridinepropanoic acid [Example 24]”, the “Hours duration (IV - acid)” value in assay [3] is 27 h. In addition, in assay [3] (27 hr), the “% inhibition (IV - acid)” value came out at 98%. Also, the IC50 in assay [2] amounted to 80 nM.

As to `CCOC(=O)CC(NC(=O)Cn1ccn(-c2ccc(C(=N)N)cc2)c1=O)c1cccnc1` (stereo not drawn) [Example 21, Ethyl β-[[[[1-[4-(aminoiminomethyl)phenyl]-2(3H)-oxo-1H-imidazol-3-yl]methyl]carbonyl]amino]-3-pyridinepropanoate], the “Hours duration (IG - ester)” value in assay [1] (10 mg/kg) came to 24 h. Moreover, the “% inhibition (IG - ester)” value in assay [1] (10 mg/kg, 24 hr) was determined as 43%.

Consider `CCOC(=O)CCNC(=O)CN1CCN(c2ccc(C(=N)N)cc2)C1=O` [Example 8, Ethyl 3-[[[[1-[4-(aminoiminomethyl)phenyl]-4,5-dihydro-2(3H)-oxo-1H-imidazol-3-yl]methyl]carbonyl]amino]propanoate], for which, in assay [1] (2.5 mg/kg), the “Hours duration (IG - ester)” value amounted to 3.1 h. The “% inhibition (IG - ester)” value in assay [1] (2.5 mg/kg, 3.1 hr) came out at 16%.

For `C=CC(CC(=O)OCC)NC(=O)Cn1ccn(-c2ccc(C(=N)N)cc2)c1=O` (stereo in doubt) [Example 11, Ethyl 3-[[[[1-[4-(aminoiminomethyl)phenyl]-2(3H)-oxo-1H-imidazol-3-yl]methyl]carbonyl]amino]pent-4(3S)-enoate trifluoroacetate], the “Hours duration (IG - ester)” value in assay [1] (5 mg/kg) was 24 h. In addition, in assay [1] (5 mg/kg, 24 hr), the “% inhibition (IG - ester)” value is reported as 35%. Further, the “Max % inhibition (IG - ester)” value in assay [1] (5 mg/kg, max @ 3 hours) is recorded as 71%.

Regarding `N=C(N)c1ccc(-n2ccn(CC(=O)NC(CC(=O)O)c3ccoc3)c2=O)cc1` (stereo not drawn) [Example 20, β-[[[[1-[4-(aminoiminomethyl)phenyl]-2(3H)-oxo-1H-imidazol-3-yl]methyl]carbonyl]amino]-3-furanpropanoic acid trifluoroacetate], the IC50 in assay [2] (setting [4]) was found to be 700 nM.

`COC(=O)CC(CC(=O)O)NC(=O)CN1CCN(c2ccc(C(=N)N)cc2)C1=O` (racemic) [Example 14, (±)Methylhydrogen3-[[[[1-[4-(aminoiminomethyl)phenyl]-4,5-dihydro-2(3H)-oxo-1H-imidazol-3-yl]methyl]carbonyl]amino]pentanedioate] yielded an IC50 in assay [2] (setting [4]) of 180 nM.

In the case of `N=C(N)c1ccc(-n2ccn(CC(=O)NC(CC(=O)O)c3cccnc3)c2=O)cc1` (stereo not drawn) [Example 22, β-[[[[1-[4-(aminoiminomethyl)phenyl]-2(3H)-oxo-1H-imidazol-3-yl]methyl]carbonyl]amino]-3-pyridinepropanoic acid], the “Hours duration (IV - acid)” value in assay [3] worked out at 24 h. In assay [3] (24 hr), the “% inhibition (IV - acid)” value is 40%. The IC50 in assay [2] (setting [4]) came to 170 nM.

For `COC(=O)CC(CC(=O)OC)NC(=O)CN1CCN(c2ccc(C(=N)N)cc2)C1=O` [Example 13, Dimethyl 3-[[[[1-[4-(aminoiminomethyl)phenyl]-4,5-dihydro-2(3H)-oxo-1H-imidazol-3-yl]methyl]carbonyl]amino]pentanedioate], the “Hours duration (IG - ester)” value in assay [1] (5 mg/kg) was 24 h. The “% inhibition (IG - ester)” value in assay [1] (5 mg/kg, 24 hr) is 14%. Moreover, in assay [1] (5 mg/kg, max @ 6 hours), the “Max % inhibition (IG - ester)” value was found to be 63%.

The term inhibition denotes the share of the control response that was lost under treatment. A higher inhibition goes with strong suppression. `N=C(N)c1ccc(N2CCCN(CC(=O)NCCC(=O)O)C2=O)cc1` [Example 26, 3-[[[[1-[4-(Aminoiminomethyl)phenyl]-1,4,5,6-tetrahydro-2(3H)-oxopyrimidin-3-yl]methyl]carbonyl]amino]propanoic acid, trifluoroacetate]: in assay [2] (setting [4]), at 1 µM the inhibition was 18%.

On to `N=C(N)c1ccc(N2CCN(CC(=O)NCCCC(=O)O)C2=O)cc1` [Example 7, 4-[[[[1-[4-(Aminoiminomethyl)phenyl]-4,5-dihydro-2(3H)-oxo-1H-imidazol-3-yl]methyl]carbonyl]amino]butanoic acid], for which the midpoint of inhibition in assay [2] (setting [4]), the IC50, lay at 1100 nM.

For the compound `CCOC(=O)CC(NC(=O)Cn1ccn(-c2ccc(C(=N)N)cc2)c1=O)c1ccoc1` (stereo not drawn) [Example 19, Ethyl β-[[[[1-[4-(aminoiminomethyl)phenyl]-2(3H)-oxo-1H-imidazol-3-yl]-methyl]carbonyl]amino]-3-furanpropanoate trifluoroacetate], the “Hours duration (IG - ester)” value in assay [1] (10 mg/kg) stood at 24 h. The “% inhibition (IG - ester)” value in assay [1] (10 mg/kg, 24 hr) is 28%. The “Max % inhibition (IG - ester)” value in assay [1] (10 mg/kg, max @ 6 hours) is listed as 85%.

Turning to `N=C(N)c1ccc(-n2ccn(CC(=O)NCCC(=O)O)c2=O)cc1` [Example 3, 3-[[[[1-[4-(aminoiminomethyl)phenyl]-2(3H)-oxo-1H-imidazol-3-yl]methyl]carbonyl]amino]propanoic acid, trifluoroacetate], half-maximal inhibition in assay [2] (setting [4]) (IC50) required 2000 nM.

Turning to `N=C(N)c1ccc(-n2ccn(CCC(=O)NCCC(=O)O)c2=O)cc1` [Example 16, 3-[[[[1-[4-(aminoiminomethyl)phenyl]-2(3H)-oxo-1H-imidazol-3-yl]ethyl]carbonyl]amino]propanoic acid], in assay [2] (setting [4]), the IC50 worked out at 340 nM.

As for `N=C(N)c1ccc(-n2ccn(CC(=O)NCCCC(=O)O)c2=O)cc1` [Example 4, 4-[[[[1-[4-(aminoiminomethyl)phenyl]-2(3H)-oxo-1H-imidazol-3-yl]methyl]carbonyl]amino]butanoic acid trifluoroacetate], the inhibition at 1 µM in assay [2] (setting [4]) was found to be 0%.
